pIC50: −log10 of the molar value.
Target: T1, human full-length MKNK1 (Homo sapiens, UniProt Q9BUB5, T385D)
T1 construct: GST (N); purchased Carna Biosciences 02-145; host or cells: insect cells (baculovirus expression system)
Experiment: MKNK1 kinase high ATP assay (TR-FRET)
Type: biochemical
Conditions: not given
Experimental: MKNK1-inhibitory activity at high ATP of compounds of the present invention after their preincubation with MKNK1 was quantified employing the TR-FRET-based MKNK1 high ATP assay as described in the following paragraphs.
As substrate for the kinase reaction the biotinylated peptide biotin-Ahx-[…] (C-terminus in amide form) was used, which can be purchased e.g. from the company Biosyntan (Berlin-Buch, Germany).
For the assay 50 nL of a 100 fold concentrated solution of the test compound in DMSO was pipetted into a black low volume 384 well microtiter plate (Greiner Bio-One, Frickenhausen, Germany), 2 μL of a solution of MKNK1 in aqueous assay buffer [50 mM HEPES pH 7.5, 5 mM MgCl2, 1.0 mM dithiothreitol, 0.005% (v/v) Nonidet-P40 (Sigma)] was added and the mixture was incubated for 15 min at 22° C. to allow pre-binding of the test compounds to the enzyme before the start of the kinase reaction. Then the kinase reaction was started by the addition of 3 μL of a solution of adenosine-tri-phosphate (ATP, 3.3 mM=>final conc. in the 5 μL assay volume is 2 mM) and substrate (0.1 μM=>final conc. in the 5 μL assay volume is 0.06 μM) in assay buffer and the resulting mixture was incubated for a reaction time of 30 min at 22° C. The concentration of MKNK1 was adjusted depending of the activity of the enzyme lot and was chosen appropriate to have the assay in the linear range, typical concentrations were in the range of 0.003 μg/mL. The reaction was stopped by the addition of 5 μL of a solution of TR-FRET detection reagents (5 nM streptavidine-XL665 [Cisbio Bioassays, Codolet, France] and 1 nM anti-ribosomal protein S6 (pSer236)-antibody from Invitrogen [#44921G] and 1 nM LANCE EU-W1024 Labeled ProteinG [Perkin-Elmer, product no. AD0071]) in an aqueous EDTA-solution (100 mM EDTA, 0.1% (w/v) bovine serum albumin in 50 mM HEPES pH 7.5).
The resulting mixture was incubated for 1 h at 22° C. to allow the formation of complex between the phosphorylated biotinylated peptide and the detection reagents. Subsequently the amount of phosphorylated substrate was evaluated by measurement of the resonance energy transfer from the Eu-chelate to the streptavidine-XL. Therefore, the fluorescence emissions at 620 nm and 665 nm after excitation at 350 nm were measured in a TR-FRET reader, e.g. a Rubystar (BMG Labtechnologies, Offenburg, Germany) or a Viewlux (Perkin-Elmer). The ratio of the emissions at 665 nm and at 622 nm was taken as the measure for the amount of phosphorylated substrate.

T1 sequence (Q9BUB5 1-424 isoform Q9BUB5-2 T344D): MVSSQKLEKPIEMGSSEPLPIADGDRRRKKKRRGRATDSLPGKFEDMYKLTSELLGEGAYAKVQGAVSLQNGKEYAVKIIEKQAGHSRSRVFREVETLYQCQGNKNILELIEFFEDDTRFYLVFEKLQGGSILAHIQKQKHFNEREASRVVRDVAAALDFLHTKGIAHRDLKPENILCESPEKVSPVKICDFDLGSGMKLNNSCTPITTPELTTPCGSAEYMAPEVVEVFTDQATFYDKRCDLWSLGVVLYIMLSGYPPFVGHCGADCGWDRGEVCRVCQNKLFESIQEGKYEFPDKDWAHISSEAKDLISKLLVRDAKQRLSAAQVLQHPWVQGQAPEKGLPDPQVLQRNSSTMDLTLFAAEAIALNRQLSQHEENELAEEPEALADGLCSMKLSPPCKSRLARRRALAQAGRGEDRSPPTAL

Work on `COc1cc2[nH]ncc2cc1Nc1ncnc2sc3c(c12)CCC(C(=O)N1CCC(=O)CC1)C3` (racemic) [Example 174, (RS)-1-({4-[(6-Methoxy-1H-indazol-5-yl)amino]-5,6,7,8-tetrahydro[1]benzothieno[2,3-d]pyrimidin-7-yl}carbonyl)piperidin-4-one] yielded a pIC50 of 9.22.

Same assay, conditions: 2 mM ATP, after preincubation with MKNK1; read-out: MKNK1 IC50 (MKNK1 high ATP)

Point of comparison: `CCOc1cc2[nH]ncc2cc1Nc1ncnc2sc3c(c12)CCC(C(=O)N1CCN(CC2CC2)CC1)C3` (racemic) [Example 247, (RS)-[4-(Cyclopropylmethyl)piperazin-1-yl]{4-[(6-ethoxy-1H-indazol-5-yl)amino]-5,6,7,8-tetrahydro[1]benzothieno[2,3-d]pyrimidin-7-yl}methanone], pIC50 9.52. Against it:
- CN(C)CCN1CCN(C(=O)C2CCc3c(sc4ncnc(Nc5ccc6[nH]ncc6c5)c34)C2)CC1 (racemic) [Example 129, (RS)-{4-[2-(dimethylamino)ethyl]piperazin-1-yl}[4-(1H-indazol-5-ylamino)-5,6,7,8-tetrahydro[1]benzothieno[2,3-d]pyrimidin-7-yl]methanone] — 1.41 log units lower, 8.11
- COc1cc2[nH]ncc2cc1Nc1ncnc2sc3c(c12)CCC(C(=O)N1CC(O)C1)C3 (racemic) [Example 272, (RS)-(3-Hydroxyazetidin-1-yl){4-[(6-methoxy-1H-indazol-5-yl)amino]-5,6,7,8-tetrahydro[1]benzothieno[2,3-d]pyrimidin-7-yl}methanone] — 0.30 log units lower, 9.22
- CN(Cc1ccccc1)C(=O)C1CCc2c(sc3ncnc(Nc4ccc5[nH]ncc5c4)c23)C1 (racemic) [Example 101, (RS)-N-benzyl-4-(1H-indazol-5-ylamino)-N-methyl-5,6,7,8-tetrahydro[1]benzothieno[2,3-d]pyrimidine-7-carboxamide] — 1.19 log units lower, 8.33
- O=C(Nc1cc[nH]n1)C1CCc2c(sc3ncnc(Nc4ccc5[nH]ncc5c4)c23)C1 (racemic) [Example 89, (RS)-4-(1H-indazol-5-ylamino)-N-(1H-pyrazol-3-yl)-5,6,7,8-tetrahydro[1]benzothieno[2,3-d]pyrimidine-7-carboxamide] — 1.90 log units lower, 7.62
- CC(C)Oc1cc2[nH]ncc2cc1Nc1ncnc2sc3c(c12)CCC(C(=O)N1CC2(COC2)C1)C3 (racemic) [Example 206, (RS)-2-Oxa-6-azaspiro[3.3]hept-6-yl(4-{[6-(propan-2-yloxy)-1H-indazol-5-yl]amino}-5,6,7,8-tetrahydro[1]benzothieno[2,3-d]pyrimidin-7-yl)methanone] — 0.52 log units lower, 9.00
- O=C(Nc1ccncc1)C1CCc2c(sc3ncnc(Nc4ccc5[nH]ncc5c4)c23)C1 (racemic) [Example 94, (RS)-4-(1H-indazol-5-ylamino)-N-(pyridin-4-yl)-5,6,7,8-tetrahydro[1]benzothieno[2,3-d]pyrimidine-7-carboxamide] — 1.89 log units lower, 7.63
- CCOc1cc2[nH]ncc2cc1Nc1ncnc2sc3c(c12)CCC(C(=O)N(C)C)C3 (racemic) [Example 254, (RS)-4-[(6-Ethoxy-1H-indazol-5-yl)amino]-N,N-dimethyl-5,6,7,8-tetrahydro[1]benzothieno[2,3-d]pyrimidine-7-carboxamide] — 0.72 log units lower, 8.80
- CN(C)C(=O)CN1CCN(C(=O)C2CCc3c(sc4ncnc(Nc5ccc6[nH]ncc6c5)c34)C2)CC1 (racemic) [Example 143, (RS)-2-(4-{[4-(1H-indazol-5-ylamino)-5,6,7,8-tetrahydro[1]benzothieno[2,3-d]pyrimidin-7-yl]carbonyl}piperazin-1-yl)-N,N-dimethylacetamide] — 1.81 log units lower, 7.71
- O=C(NCCCn1ccnc1)C1CCc2c(sc3ncnc(Nc4ccc5[nH]ncc5c4)c23)C1 (racemic) [Example 93, (RS)-N-[3-(1H-imidazol-1-yl)propyl]-4-(1H-indazol-5-ylamino)-5,6,7,8-tetrahydro[1]benzothieno[2,3-d]pyrimidine-7-carboxamide] — 1.52 log units lower, 8.00
- Cn1cc(CNC(=O)C2CCc3c(sc4ncnc(Nc5ccc6[nH]ncc6c5)c34)C2)cn1 (racemic) [Example 158, (RS)-4-(1H-indazol-5-ylamino)-N-[(1-methyl-1H-pyrazol-4-yl)methyl]-5,6,7,8-tetrahydro[1]benzothieno[2,3-d]pyrimidine-7-carboxamide] — 1.74 log units lower, 7.78
- CN1CCCN(C(=O)C2CCc3c(sc4ncnc(Nc5ccc6[nH]ncc6c5)c34)C2)CC1 (racemic) [Example 118, (RS)-[4-(1H-indazol-5-ylamino)-5,6,7,8-tetrahydro[1]benzothieno[2,3-d]pyrimidin-7-yl](4-methyl-1,4-diazepan-1-yl)methanone] — 1.64 log units lower, 7.88
- O=C(CN1CCN(C(=O)C2CCc3c(sc4ncnc(Nc5ccc6[nH]ncc6c5)c34)C2)CC1)N1CCCC1 (racemic) [Example 201, (RS)-2-(4-{[4-(1H-indazol-5-ylamino)-5,6,7,8-tetrahydro[1]benzothieno[2,3-d]pyrimidin-7-yl]carbonyl}piperazin-1-yl)-1-(pyrrolidin-1-yl)ethanone] — 1.78 log units lower, 7.74
- COCCCNC(=O)C1CCc2c(sc3ncnc(Nc4ccc5[nH]ncc5c4)c23)C1 (stereo not shown) [Example 48, 4-(1H-Indazol-5-ylamino)-N-(3-methoxypropyl)-5,6,7,8-tetrahydro[1] benzothieno [2,3-d]pyrimidine-7-carboxamide] — 1.60 log units lower, 7.92
- CCN(Cc1ccncc1)C(=O)C1CCc2c(sc3ncnc(Nc4ccc5[nH]ncc5c4)c23)C1 (racemic) [Example 109, (RS)-N-ethyl-4-(1H-indazol-5-ylamino)-N-(pyridin-4-ylmethyl)-5,6,7,8-tetrahydro[1]benzothieno[2,3-d]pyrimidine-7-carboxamide] — 1.42 log units lower, 8.10
- N#Cc1cccc(NC(=O)C2CCc3c(sc4ncnc(Nc5ccc6[nH]ncc6c5)c34)C2)c1 (racemic) [Example 79, (RS)—N-(3-Cyanophenyl)-4-(1H-indazol-5-ylamino)-5,6,7,8-tetrahydro[1]benzothieno[2,3-d]pyrimidine-7-carboxamide] — 1.54 log units lower, 7.98
- CC(C)(NC(=O)C1CCc2c(sc3ncnc(Nc4ccc5[nH]ncc5c4)c23)C1)c1ccc(F)cc1 (racemic) [Example 161, (RS)-N-[2-(4-fluorophenyl)propan-2-yl]-4-(1H-indazol-5-ylamino)-5,6,7,8-tetrahydro[1]benzothieno[2,3-d]pyrimidine-7-carboxamide] — 1.03 log units lower, 8.49
- CN(C)CCCNC(=O)C1CCc2c(sc3ncnc(Nc4ccc5[nH]ncc5c4)c23)C1 (stereo not shown) [Example 40, N-[3-(Dimethylamino)propyl]-4-(1H-indazol-5-ylamino)-5,6,7,8-tetrahydro[1] benzothieno [2,3-d]pyrimidine-7-carboxamide] — 1.37 log units lower, 8.15
- CS(=O)(=O)N1CCN(C(=O)C2CCc3c(sc4ncnc(Nc5ccc6[nH]ncc6c5)c34)C2)CC1 (racemic) [Example 156, (RS)-[4-(1H-indazol-5-ylamino)-5,6,7,8-tetrahydro[1]benzothieno[2,3-d]pyrimidin-7-yl][4-(methylsulfonyl)piperazin-1-yl]methanone] — 1.78 log units lower, 7.74
- NC(=O)C1CCc2c(sc3ncnc(Nc4ccc5[nH]ncc5c4)c23)C1 (stereo not shown) [Example 3, 4-(1H-Indazol-5-ylamino)-5,6,7,8-tetrahydro[1]benzothieno[2,3-d]pyrimidine-7-carboxamide] — 1.42 log units lower, 8.10
- CC(C)CNC(=O)C1CCc2c(sc3ncnc(Nc4ccc5[nH]ncc5c4)c23)C1 (stereo not shown) [Example 39, 4-(1H-Indazol-5-ylamino)-N-(2-methylpropyl)-5,6,7,8-tetrahydro[1] benzothieno [2,3-d]pyrimidine-7-carboxamide] — 1.30 log units lower, 8.22
- CN1CCN(C(=O)C2CCc3c(sc4ncnc(Nc5ccc6[nH]ncc6c5)c34)C2)CC1CCO (racemic) [Example 197, (RS)-[3-(2-hydroxyethyl)-4-methylpiperazin-1-yl][4-(1H-indazol-5-ylamino)-5,6,7,8-tetrahydro[1]benzothieno[2,3-d]pyrimidin-7-yl]methanone] — 1.42 log units lower, 8.10
- COc1cc2[nH]ncc2cc1Nc1ncnc2sc3c(c12)CCC(C(=O)N(CCO)CCO)C3 (racemic) [Example 234, (RS)—N, N-Bis(2-hydroxyethyl)-4-[(6-methoxy-1H-indazol-5-yl)amino]-5,6,7,8-tetrahydro[1]benzothieno[2,3-d]pyrimidine-7-carboxamide] — within 0.2 log units, 9.40
- O=C(C1CCc2c(sc3ncnc(Nc4ccc5[nH]ncc5c4)c23)C1)N1CCN(CC2CC2)CC1 (racemic) [Example 191, (RS)-[4-(cyclopropylmethyl)piperazin-1-yl][4-(1H-indazol-5-ylamino)-5,6,7,8-tetrahydro[1]benzothieno[2,3-d]pyrimidin-7-yl]methanone] — 1.38 log units lower, 8.14

Reference: patent publication US9540392B2, “Thienopyrimidines” (BAYER PHARMA AKTIENGESELLSCHAFT, priority 2012, dated 2017)
